Reference: PMC7036871, “Identification and Characterization of pantocin wh-1, a Novel Cyclic Polypeptide Produced by Pantoea dispersa W18” (Molecules, 2020)
Where a SMILES comes first, the peptide text is derived from it.

Key:
[1] = test system: DNase; experiment: Effect of enzymes on antibacterial activity: DNase; format: in vitro ADME
From the text: (§1) Furthermore, the antibacterial activity of pantocin wh-1 also retained nearly 100% of the initial activity within a broad pH range (pH 2–12).
(§2) The effect of various enzymes, pH, and temperature on pantocin wh-1 activity was detected as described by J.-M. Chobert et al. with a slight modification. Proteinase K, trypsin, catalase, lysozyme, DNAse, and RNAse were used to test the antibacterial activity of pantocinwh-1. To analyze the effect of different pH values on the antibacterial activity of pantocin wh-1, the sample of pantocin wh-1 was exposed to buffer with a pH value of 2–12 for 1 h at 25 °C. The effect of temperature on the anti-mycobacterial activity of pantocin wh-1 was determined by incubating pantocin wh-1 at 50 °C and 100 °C for 60 min, as well as at 121 °C for 15 min, and then detecting the bactericidal activity against M. smegmatis mc^2 155.

[2] = test system: autoluminescent H37Ra (UAlRa); parameters: species or system BALB/c female mice; conditions: mouse, in vivo
[3] = test system: S. aureus N315; experiment: Antimicrobial spectrum, microporous dilution method; format: cell-based; parameters: key: -: no inhibitory activity; +: Inhibit the growth of less than 10% amount of the initial bacteria; ++: Inhibit the growth of less than 50% amount of the initial bacteria; +++: Inhibit the growth of initial bacteria completely; conditions: S. aureus N315, medium LB
[4] = molecular target: RNase (Bos taurus, UniProt P61823); experiment: Effect of enzymes on antibacterial activity: RNase; format: in vitro ADME
From the text: as §1, §2

[5] = test system: E. coli O157; experiment: Antimicrobial spectrum, microporous dilution method; format: cell-based; parameters: key: -: no inhibitory activity; +: Inhibit the growth of less than 10% amount of the initial bacteria; ++: Inhibit the growth of less than 50% amount of the initial bacteria; +++: Inhibit the growth of initial bacteria completely; conditions: E. coli O157, medium LB
[6] = test system: P. aeruginosa; experiment: as above; format: cell-based; parameters: key: -: no inhibitory activity; +: Inhibit the growth of less than 10% amount of the initial bacteria; ++: Inhibit the growth of less than 50% amount of the initial bacteria; +++: Inhibit the growth of initial bacteria completely; conditions: medium LB
Protocol: (§3) In this paper, the microporous dilution method was used to detect the antibacterial spectrum of pantocin wh-1 against Gram-negative and -positive bacteria. […] The time kill studies were determined over 8 h with M. smegmatis mc^2 155 being exposed to 0.5, 1, 2, or 4 × MIC of pantocin wh-1. […] At 2 × MIC and 4 × MIC, pantocin wh-1 caused bacterial eradication was completed approximately after 4 h.
(§4) The antibacterial activity of the pantocin wh-1 was detected by the microscale optical density assay (MODA) method. Briefly, 90 μL of the dilutions of pantocin wh-1, 100 μL 2 × 7H9 medium, and 10 μL of a log phase indicator strain were co-incubated in the 96-well plate at 37 °C for 48 h. For control groups, 90 μL of the dilutions of pantocin wh-1 were replaced by an equal volume of sterile water. After incubation, the 96 well microplate was measured by a microplate reader at a 600 nm wavelength (Biotek synergyH1, Biotek, Winooski, VT, USA). The amount of pantocin wh-1 produced by P. dispersa W18 was determined using two fold dilutions. […] The results were expressed in AU/mL. The MIC was defined as the last dilution of pantocin wh-1 sufficient to prevent indicator strain growth in vitro.

[7] = test system: S. pyogenes; experiment: as above; format: cell-based; parameters: key: -: no inhibitory activity; +: Inhibit the growth of less than 10% amount of the initial bacteria; ++: Inhibit the growth of less than 50% amount of the initial bacteria; +++: Inhibit the growth of initial bacteria completely; conditions: medium BHI
Protocol: as §3, §4

[8] = test system: S. aureus AM025; experiment: as above; format: cell-based; parameters: key: -: no inhibitory activity; +: Inhibit the growth of less than 10% amount of the initial bacteria; ++: Inhibit the growth of less than 50% amount of the initial bacteria; +++: Inhibit the growth of initial bacteria completely; conditions: S. aureus AM025, medium LB
Protocol: as §3, §4

[9] = as above; format: cell-based; parameters: key: -: no inhibitory activity; +: Inhibit the growth of less than 10% amount of the initial bacteria; ++: Inhibit the growth of less than 50% amount of the initial bacteria; +++: Inhibit the growth of initial bacteria completely; conditions: White aureus 8799, medium LB
Protocol: as §3, §4

[10] = test system: M. smegmatis mc^2 155; experiment: Antibacterial activity, microscale optical density assay (MODA) / microporous dilution; format: cell-based, Mycobacterium smegmatis; parameters: key: -: no inhibitory activity; +: Inhibit the growth of less than 10% amount of the initial bacteria; ++: Inhibit the growth of less than 50% amount of the initial bacteria; +++: Inhibit the growth of initial bacteria completely; conditions: M. smegmatis mc2155, medium 7H9
Protocol: as §3, §4

[11] = Effect of pH on antibacterial activity; format: physicochemical; conditions: for Residual activity: compared with antimicrobial activity before the treatment
From the text: as §1, §2

[12] = test system: M. smegmatis mc^2 155; experiment: Time kill study; format: cell-based, Mycobacterium smegmatis
Protocol: as §3
For detection of the time kill study, 100 μL of the indicator strain in exponential phase were added to tubes containing 5 mL of the modified 7H9 medium with pantocin wh-1 at 0.5, 1, 2, and 4 × MIC. No pantocin wh-1 was added in the control tube, then incubated at 37 °C for 8 h. At the end of each time period, tenfold serial dilutions were prepared with 0.5 mM phosphate buffer, and 100 μL cultures were plated in triplicate onto the 7H10 plates. For anti-tuberculosis activities in vivo, an auto-luminescent strain of M. tuberculosis H37Ra (AlRa) described by Tianyu Zhang was used to assess the efficacy of pantocin wh-1 in a mouse model. The relative light unit (RLU) count was determined to parallel CFU counts during the active phase of bacterial growth. AlRa with OD600 of 0.1 was injected into female BALB/c mice by tail vein. The day after injection (Day 0), RLU values were detected for 6 days in triplicate.

[13] = test system: M. bovis BCG; format: cell-based; parameters: key: -: no inhibitory activity; +: Inhibit the growth of less than 10% amount of the initial bacteria; ++: Inhibit the growth of less than 50% amount of the initial bacteria; +++: Inhibit the growth of initial bacteria completely; conditions: medium 7H9
[14] = test system: Klebsiella; experiment: Antimicrobial spectrum, microporous dilution method; format: cell-based
Protocol: as §3, §4

[15] = test system: L .monocytogenes; experiment: as above; format: cell-based, Listeria monocytogenes
Protocol: as §3, §4

Chain of RNase (P61823 27-150): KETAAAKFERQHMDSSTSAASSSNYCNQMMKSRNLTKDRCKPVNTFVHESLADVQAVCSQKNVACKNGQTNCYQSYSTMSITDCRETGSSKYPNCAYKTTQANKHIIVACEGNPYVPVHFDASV

For `CSCC[C@@H]1NC(=O)[C@H](C(C)C)NC(=O)[C@H](Cc2c[nH]c3ccccc23)NC(=O)[C@H](C(C)C)NC(=O)[C@H](C)NC(=O)[C@H](CS)NC(=O)[C@H](CC(N)=O)NC(=O)[C@H](Cc2ccccc2)NC(=O)CNC(=O)[C@H](Cc2ccc(O)cc2)NC(=O)CNC(=O)[C@H](Cc2ccccc2)NC(=O)[C@H](C(C)C)NC(=O)[C@H](Cc2ccc(O)cc2)NC(=O)[C@H](CS)NC(=O)[C@H](Cc2c[nH]c3ccccc23)NC1=O` [pantocin wh-1] (cyclo(AVWVMWCYVFGYGFNC)), the “antibacterial activity after DNase I” value ([1]; DNase I) was “insensitive”, the Residual activity ([1]; DNase treatment, compared with antimicrobial activity before the treatment) was 100% and the “relative light unit (RLU) value” [2] was “significant decrease”. For the same compound, the “therapeutic effect compared with streptomycin” value [2] was “did not exceed that of streptomycin”, the Inhibition activity [3] was “-” and the “antibacterial activity after RNase A” value ([4]; RNase A) was “insensitive”. The Residual activity ([4]; RNase treatment, compared with antimicrobial activity before the treatment) was 100%, the Inhibition activity [5] was “-” and the Inhibition activity [6] was “-”. The Inhibition activity [7] was “-”, the Inhibition activity [8] was “-” and the Inhibition activity [9] was “-”. For the same compound, the Inhibition activity [10] was “+++”, the “retained initial antibacterial activity” value ([11]; broad pH range (pH 2–12)) was ~100% and the Residual activity ([11]; pH2-6, buffer 1 h at 25 °C) was 90%. The Residual activity ([11]; pH6-8, buffer 1 h at 25 °C) was 100%, the Residual activity ([11]; pH8-12, buffer 1 h at 25 °C) was 85% and the “decline in colony forming units (CFU)” value ([12]; 0.5 and 1 × MIC, within the first 2 h, followed by bacterial regeneration to near the initial concentration) was > 3 log. For the same compound, the “time to completed bacterial eradication” value ([12]; 2 × MIC and 4 × MIC) was ~4 h, the Inhibition activity [13] was “+++” and the “inhibitory activity” value [14] was “partial inhibitory activity”. The Inhibition activity ([15]; L .monocytogenes, medium BHI) was “+ (Inhibit the growth of less than 10% amount of the initial bacteria)” and the “inhibitory activity” value ([15]; Listeria monocytogenes) was “partial inhibitory activity”.
